Legend:
[1] = target: T1, truncated His-MBP-Tev-KLHDC2 (residues 1-363) (Homo sapiens, UniProt Q9Y2U9); test: KLHDC2 HTRF binding assay; settings: 1 nM KLHDC2 (residues 1-363), fluorescein-labeled diglycine peptide probe
T1 construct: truncated His -MBP-Tev-KLHDC2 (residues 1-363) purified from E. coli; made in house; host or cells: E. coli
T1 sequence (Q9Y2U9 1-363): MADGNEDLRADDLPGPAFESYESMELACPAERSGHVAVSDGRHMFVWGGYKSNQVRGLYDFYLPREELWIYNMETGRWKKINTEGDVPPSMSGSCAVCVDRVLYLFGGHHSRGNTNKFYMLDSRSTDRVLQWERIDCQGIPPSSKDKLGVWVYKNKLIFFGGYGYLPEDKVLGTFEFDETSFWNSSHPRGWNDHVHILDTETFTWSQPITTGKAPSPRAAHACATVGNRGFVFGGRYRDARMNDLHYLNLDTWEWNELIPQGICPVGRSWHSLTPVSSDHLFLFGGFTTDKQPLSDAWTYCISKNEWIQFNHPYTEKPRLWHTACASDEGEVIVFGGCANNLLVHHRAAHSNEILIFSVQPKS

[2] = target: T1, truncated His-MBP-Tev-KLHDC2 (residues 1-363); test: KLHDC2 FP competition binding assay; settings: 15 nM KLHDC2 (residues 1-363), 10 nM fluorescein-labeled diglycine peptide probe, read-out: KLHDC2 binding Human FP: average external IC50

**Q.** Which results are given for `O=C(O)C1CC(=O)N(Cc2ccccn2)C1` (stereo not drawn) [I-230]?
**A.** IC50 [1]: > 5 µM; IC50 [2]: > 5 µM

**Q.** How did the IC50 [1] turn out when `Cc1cc(O)ccc1-c1ccc(=O)n(CC(=O)O)c1` [I-346] was run?
**A.** Its IC50 is > 5 µM.

**Q.** And the IC50 [2]?
**A.** Its IC50 is > 5 µM.

**Q.** Which IC50 [1] does the source give for `CC(C)Cn1ncc2c(C(=O)Nc3ccc(=O)n(CC(=O)O)c3)cccc21` [I-136] here?
**A.** The IC50 was 0.5 to 5 µM.

**Q.** What about the IC50 [2] of the same molecule?
**A.** Its IC50 is > 5 µM.

**Q.** How did the IC50 [1] turn out when `CCN1C(=O)CCC(C(=O)O)C1c1cnn(C)c1` (stereo not drawn) [I-217] was run?
**A.** Its IC50 is > 5 µM.

**Q.** What about the IC50 [2] of the same molecule?
**A.** Its IC50 is > 5 µM.

**Q.** With `COc1ncc(-c2ccc(=O)n(CC(=O)O)c2)cn1` [I-362] as the molecule, how does the IC50 [1] read?
**A.** Its IC50 is > 5 µM.

**Q.** What about the IC50 [2] of the same molecule?
**A.** Its IC50 is > 5 µM.

**Q.** Which IC50 [1] does the source give for `COc1cc(-c2ccccc2)ccc1C(=O)Nc1ccc(=O)n(CC(=O)O)c1` [I-203] here?
**A.** Its IC50 is 0.5 to 5 µM.

**Q.** What about the IC50 [2] of the same molecule?
**A.** The IC50 was 0.5 to 5 µM.

**Q.** Which results are given for `O=C(O)Cn1cc(NC(=O)c2ccc(-c3cccnc3)s2)ccc1=O` [I-205]?
**A.** IC50 [1]: > 5 µM; IC50 [2]: > 5 µM

**Q.** Which results are given for `O=C(O)Cn1cc(NC(=O)c2ccccc2)ccc1=O` [I-382]?
**A.** IC50 [1]: > 5 µM; IC50 [2]: > 5 µM

**Q.** With `O=C(O)Cn1cc(NC(=O)c2nccc(-c3cccnc3)n2)ccc1=O` [I-85] as the molecule, how does the IC50 [1] read?
**A.** Its IC50 is 0.5 to 5 µM.

**Q.** What about the IC50 [2] of the same molecule?
**A.** The IC50 was 0.5 to 5 µM.

**Q.** For `Cc1ccc(C(=O)Nc2ccc(=O)n(CC(=O)O)c2)nc1-c1cccnc1` [I-170], which IC50 [1] is on record?
**A.** The IC50 was 0.5 to 5 µM.

**Q.** And the IC50 [2]?
**A.** Its IC50 is > 5 µM.

**Q.** Which IC50 [1] does the source give for `O=C(O)Cn1cc(NC(=O)C2(S(=O)(=O)c3ccc(Cl)cc3)CCCC2)ccc1=O` [I-236] here?
**A.** The IC50 was > 5 µM.

**Q.** And the IC50 [2]?
**A.** The IC50 was > 5 µM.

**Q.** Which results are given for `CS(=O)(=O)NC(=O)Cn1cc(NC(=O)c2cccc(-c3cccnc3)c2)ccc1=O` [I-78]?
**A.** IC50 [1]: > 5 µM; IC50 [2]: > 5 µM

**Q.** Which results are given for `Cn1cc(-c2cccc(C(=O)Nc3ccc(=O)n(CC(=O)O)c3)c2)ccc1=O` [I-178]?
**A.** IC50 [1]: > 5 µM; IC50 [2]: > 5 µM

**Q.** With `CC(C)(C)OC(=O)NCCCCCCn1ccc2c(C(=O)Nc3ccc(=O)n(CC(=O)O)c3)cccc21` [I-160] as the molecule, how does the IC50 [1] read?
**A.** The IC50 was 0.05 to 0.5 µM.

**Q.** What about the IC50 [2] of the same molecule?
**A.** Its IC50 is 0.5 to 5 µM.

**Q.** Which results are given for `CC(C)(C)OC(=O)NCCCCCCc1ccncc1-c1cccc(C(=O)Nc2ccc(=O)n(CC(=O)O)c2)c1` [I-164]?
**A.** IC50 [1]: 0.05 to 0.5 µM; IC50 [2]: 0.5 to 5 µM

**Q.** Which IC50 [1] does the source give for `O=C(O)Cn1cc(NC(=O)COc2cc(Cl)cc(Cl)c2)ccc1=O` [I-257] here?
**A.** The IC50 was > 5 µM.

**Q.** What about the IC50 [2] of the same molecule?
**A.** The IC50 was > 5 µM.

**Q.** For `O=C(O)Cn1cc(-c2cccc(CCc3ccccc3)c2)ccc1=O` [I-295], which IC50 [1] is on record?
**A.** The IC50 was > 5 µM.

**Q.** And the IC50 [2]?
**A.** Its IC50 is > 5 µM.

**Q.** Which IC50 [1] does the source give for `O=C(Nc1ccnc(C(=O)O)c1)c1cccc(-c2cccnc2)c1` [I-37] here?
**A.** The IC50 was > 5 µM.

**Q.** What about the IC50 [2] of the same molecule?
**A.** Its IC50 is > 5 µM.

**Q.** For `O=C(O)Cn1cc(NC(=O)c2ccc3nc(Cl)ccc3c2)ccc1=O` [I-176], which IC50 [1] is on record?
**A.** Its IC50 is > 5 µM.

**Q.** What about the IC50 [2] of the same molecule?
**A.** Its IC50 is > 5 µM.

**Q.** How did the IC50 [1] turn out when `O=C(O)Cn1cc(NC(=O)c2ccc(-c3ccccc3Cl)o2)ccc1=O` [I-255] was run?
**A.** Its IC50 is > 5 µM.

**Q.** And the IC50 [2]?
**A.** The IC50 was > 5 µM.

**Q.** For `NC(=O)Cc1ccc(-c2ccc(=O)n(CC(=O)O)c2)cc1` [I-313], which IC50 [1] is on record?
**A.** Its IC50 is > 5 µM.

**Q.** And the IC50 [2]?
**A.** Its IC50 is > 5 µM.

**Q.** Which IC50 [1] does the source give for `Cc1cc(=O)n(CC(=O)O)cc1-c1cc(F)c(O)c(F)c1` [I-329] here?
**A.** Its IC50 is > 5 µM.

**Q.** And the IC50 [2]?
**A.** The IC50 was > 5 µM.

**Q.** `CC(C)Cc1cccc(-c2ccc(=O)n(CC(=O)O)c2)c1` [I-344] was tested. Which IC50 [1] did it give?
**A.** The IC50 was > 5 µM.

**Q.** And the IC50 [2]?
**A.** Its IC50 is > 5 µM.

**Q.** With `O=C(O)Cn1cc(Nc2nccc3c(-c4cccnc4)cccc23)ccc1=O` [I-93] as the molecule, how does the IC50 [1] read?
**A.** Its IC50 is > 5 µM.

**Q.** And the IC50 [2]?
**A.** The IC50 was > 5 µM.

**Q.** Which IC50 [1] does the source give for `Cc1c(NC(=O)c2cccc(-c3cccnc3)c2)ccc(=O)n1CC(=O)O` [I-70] here?
**A.** Its IC50 is > 5 µM.

**Q.** And the IC50 [2]?
**A.** The IC50 was > 5 µM.

**Q.** With `Cc1ccccc1-c1ccc(O)c(CC(=O)O)c1` [I-336] as the molecule, how does the IC50 [1] read?
**A.** Its IC50 is > 5 µM.

**Q.** What about the IC50 [2] of the same molecule?
**A.** The IC50 was > 5 µM.

**Q.** Which results are given for `Cc1cc(C)cc(-c2ccc(=O)n(CC(=O)O)c2)c1` [I-408]?
**A.** IC50 [1]: > 5 µM; IC50 [2]: > 5 µM

**Q.** With `COc1cc(F)cc(-c2ccc(=O)n(CC(=O)O)c2)c1` [I-396] as the molecule, how does the IC50 [1] read?
**A.** The IC50 was > 5 µM.

**Q.** And the IC50 [2]?
**A.** Its IC50 is > 5 µM.

**Q.** Which IC50 [1] does the source give for `O=C(O)Cc1ccccc1O` [I-425] here?
**A.** Its IC50 is > 5 µM.

**Q.** What about the IC50 [2] of the same molecule?
**A.** Its IC50 is > 5 µM.

**Q.** How did the IC50 [1] turn out when `COc1cccc2c(N3CCC[C@H](C(=O)Nc4ccc(F)c(CC(=O)O)c4)C3)cncc12` [I-6] was run?
**A.** Its IC50 is < 0.05 µM.

**Q.** What about the IC50 [2] of the same molecule?
**A.** The IC50 was 0.05 to 0.5 µM.

**Q.** How did the IC50 [1] turn out when `O=C(O)Cn1cc(-c2cccc(N3CCCCC3)c2)ccc1=O` [I-314] was run?
**A.** The IC50 was > 5 µM.

**Q.** What about the IC50 [2] of the same molecule?
**A.** The IC50 was > 5 µM.

**Q.** Which results are given for `O=C(O)Cn1cc(NC(=O)[C@@H]2CCCN(c3cccnc3)C2)c(Cl)cc1=O` [I-82]?
**A.** IC50 [1]: 0.5 to 5 µM; IC50 [2]: > 5 µM

**Q.** Which results are given for `COc1cccc2c(N3CCC[C@H](C(=O)Nc4ccc(=O)n(CC(=O)O)c4)C3)cncc12` [I-9]?
**A.** IC50 [1]: < 0.05 µM; IC50 [2]: < 0.05 µM

**Q.** Which results are given for `O=C(O)Cn1cc(NC(=O)c2cccc(-c3ccccc3)n2)ccc1=O` [I-274]?
**A.** IC50 [1]: > 5 µM; IC50 [2]: > 5 µM

**Q.** Which results are given for `CCOC(=O)Cn1cc(NC(=O)c2cc(CCCCCCN)cc(-c3cccnc3)c2)ccc1=O` [I-157]?
**A.** IC50 [1]: > 5 µM; IC50 [2]: > 5 µM

**Q.** Which IC50 [1] does the source give for `Cc1cccc(-c2cccc(C(=O)Nc3ccc(=O)n(CC(=O)O)c3)c2)c1` [I-294] here?
**A.** The IC50 was > 5 µM.

**Q.** What about the IC50 [2] of the same molecule?
**A.** Its IC50 is > 5 µM.
